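Growth conditions: 96-well plates. Treatment: test compound, 48 hours, 5 concentrations. Analysis: linear interpolation between bracketing concentrations; unreached endpoints set to highest concentration. The concentration for 50% growth inhibition is given as GI50.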 The source made the active and inactive calls. No stated cut-off is given here; in the data, active = GI50 up to about 1.1 µM and inactive = higher. Square brackets hold non-standard residues; d marks the D form. Peptide text beside a SMILES is read from it. * marks the point of attachment. NMeV = CN[C@H](C(=O)O)C(C)C; X28 = COc1ccc(CN*)c(OC)c1; Octanoyl = CCCCCCCC(=O)*; dNMeA = CN[C@H](C)C(=O)O
Assays:
Test in all cases: NCI-60 cell line screen, 48 h
A498 = tested on: A498
BT-549 = tested on: BT-549
EKVX = tested on: EKVX
HCC 2998 = tested on: HCC 2998
HOP-62 = tested on: HOP-62
HOP-92 = tested on: HOP-92
Hs-578T = tested on: Hs-578T
M14 = tested on: M14
MDA-MB-231 = tested on: MDA-MB-231
Malme-3M = tested on: Malme-3M
NCI-H226 = tested on: NCI-H226
OVCAR-5 = tested on: OVCAR-5
PC-3 = tested on: PC-3
SF-295 = tested on: SF-295
SK-MEL-2 = tested on: SK-MEL-2
SNB-75 = tested on: SNB-75
T47D = tested on: T47D
UACC-257 = tested on: UACC-257
UACC-62 = tested on: UACC-62

Structure (SMILES) | GI50 (A498) | GI50 (BT-549) | GI50 (EKVX) | GI50 (HCC 2998) | GI50 (HOP-62) | GI50 (HOP-92) | GI50 (Hs-578T) | GI50 (M14) | GI50 (MDA-MB-231) | GI50 (Malme-3M) | GI50 (NCI-H226) | GI50 (OVCAR-5) | GI50 (PC-3) | GI50 (SF-295) | GI50 (SK-MEL-2) | GI50 (SNB-75) | GI50 (T47D) | GI50 (UACC-257) | GI50 (UACC-62)
O=C1CSC(c2ccc(Cl)cc2)N1c1ccc(-n2c(-c3ccccc3)nc3ccccc3c2=O)cc1 (stereo not given) | 83.4 µM (inactive) | > 100 µM (inactive) | > 100 µM (inactive) | 34.5 µM (inactive) | > 100 µM (inactive) | 10.3 µM (inactive) | 52.7 µM (inactive) | > 100 µM (inactive) | 33.2 µM (inactive) | 48.9 µM (inactive) | > 100 µM (inactive) | > 100 µM (inactive) | 53.8 µM (inactive) | 46.1 µM (inactive) | > 100 µM (inactive) | 7.64 µM (inactive) | 8.36 µM (inactive) | > 100 µM (inactive) | 19.8 µM (inactive)
CC[C@@]1(O)C(=O)OCc2c1cc1n(c2=O)Cc2c-1nc1ccccc1c2/C=N\NC(=O)CN | 0.488 µM (active) | 0.627 µM (active) | 12 µM (inactive) | 2.21 µM (inactive) | 0.0533 µM (active) | 1.15 µM (inactive) | > 40.5 µM (inactive) | 0.126 µM (active) | 23 µM (inactive) | 2.76 µM (inactive) | 0.188 µM (active) | 3.24 µM (inactive) | 4.73 µM (inactive) | 0.143 µM (active) | 23.8 µM (inactive) | 0.133 µM (active) | 0.0486 µM (active) | 2.49 µM (inactive) | 0.0333 µM (active)
C=CCN(c1cc(OC)c2[nH]c(C(=O)OCC)c(C)c2c1[N+](=O)[O-])S(C)(=O)=O | 25.8 µM (inactive) | 22.1 µM (inactive) | 18.5 µM (inactive) | 45.5 µM (inactive) | 35.6 µM (inactive) | 18.6 µM (inactive) | 17.8 µM (inactive) | 30.8 µM (inactive) | 11 µM (inactive) | 15.7 µM (inactive) | 1.04 µM (active) | 29.3 µM (inactive) | 18 µM (inactive) | 28.5 µM (inactive) | 25.1 µM (inactive) | 15.2 µM (inactive) | 15.2 µM (inactive) | 39.9 µM (inactive) | 26.1 µM (inactive)
CC(C)C(C/C=C1\CC(CO)(COC(=O)C2CCCCC2)OC1=O)C(C)C (stereo not given) | 44.8 µM (inactive) | 23.7 µM (inactive) | 19 µM (inactive) | 27.9 µM (inactive) | 13.2 µM (inactive) | 16.9 µM (inactive) | 13.2 µM (inactive) | 21.8 µM (inactive) | 16.8 µM (inactive) | 16.2 µM (inactive) | 18.2 µM (inactive) | 20 µM (inactive) | 18.2 µM (inactive) | 16.3 µM (inactive) | > 100 µM (inactive) | 12.9 µM (inactive) | 21.2 µM (inactive) | 32.2 µM (inactive) | 43.8 µM (inactive)
CCCCCCCC(=O)N[C@H](C(=O)N[C@H](C(=O)N(C)[C@H](C(=O)N1CCC[C@H]1C(=O)N(C)[C@H](C)C(=O)NCc1ccc(OC)cc1OC)C(C)C)C(C)C)C(C)C (Octanoyl-VV[NMeV]P[dNMeA]-X28) | 1.95 µM (inactive) | 11.8 µM (inactive) | 6.89 µM (inactive) | 13.4 µM (inactive) | 20.4 µM (inactive) | 7.6 µM (inactive) | 9.16 µM (inactive) | 7.82 µM (inactive) | 10.5 µM (inactive) | 8.17 µM (inactive) | 4.95 µM (inactive) | 25.5 µM (inactive) | 7.01 µM (inactive) | 7.96 µM (inactive) | 12.9 µM (inactive) | 21.3 µM (inactive) | 4.29 µM (inactive) | 5.21 µM (inactive) | 7.21 µM (inactive)
